Measured values taken from US8309596B2, “Kallikrein 7 modulators” (Novartis AG, priority 2007, dated 2012).
Marks after values point to notes of the source that are not given here. Each block holds one compound with its values, some of them ahead of it.

What was measured:
Kallikrein-7 = Kallikrein-7 (Homo sapiens, UniProt P49862); experiment: Kallikrein-7 inhibition, fluorescence-quenched substrate, determination of IC50 values; format: biochemical; details: pH 5.6, 1 hour preincubation, 0.2 nM protease, 2 μM substrate, room temperature
Method: The fluorescence-quenched substrate Ac-Glu-Asp(EDANS)-Lys-Pro-Ile-Leu-Phe^Arg-Leu-Gly-Lys(DABCYL)-Glu-NH2 (where ^ indicates the scissile bond, identified by MS analysis) is purchased from Biosyntan (Berlin, Germany) and kept as a 5 mM stock solution in DMSO at −20° C. All other chemicals are of analytical grade.
Enzymatic reactions are conducted in 50 mM sodium citrate buffer at pH 5.6 containing 150 mM NaCl and 0.05% (w/v) CHAPS.
All protein and peptide containing solutions are handled in siliconized tubes (Life Systems Design, Merenschwand, Switzerland). […]
For fluorescence intensity (FI) measurements an Ultra Evolution reader (TECAN, Maennedorf, Switzerland) is used. The instrument is equipped with a combination of a 350 nm (20 nm bandwidth) and a 500 nm (25 nm bandwidth) bandpath filter for fluorescence excitation and emission acquisition, respectively. […]
For the determination of IC50 values the assay is performed at room temperature in 384-well plates. […] The protease concentration in final assay solution is 0.2 nM (according to the enzyme concentrations determined by the Bradford method). […] The effect of the compound on the enzymatic activity is obtained from the linear progress curves and determined from two readings, the first one taken directly after the addition of substrate and the second one after 1 hour. […]

hairless SKH1 mice = experiment: Test on recovery of skin barrier disruption in mice (TEWL); format: in vivo; details: 10 mM
Method: Method: Skin barrier disruption is achieved in groups of hairless SKH1 mice with repeated stripping of the skin with S-Sqame® skin sampling disks. The procedure is completed when transepidermal water loss (TEWL) achieved ≧[…]. TEWL is assessed with a Tewameter TM210 (Courage Khazaka, Cologne, Del.). Immediately after barrier disruption 30 μl of the compound of example 37(=Test compound 1) is applied at 10 mM concentration. Controls animals are treated similarly with the solvent (EtOH/propylene glycol, 3/7 (v/v)) alone. TEWL is measured before, immediately after, and at 3 hrs after barrier disruption. In each animal, the percentage recovery is calculated using the formula: (1−[TEWL at 3 hrs−base line TEWL]/[TEWL immediately after stripping−base line TEWL])×100%.

Crl:NMRI mice = experiment: Anti-inflammatory activity in murine model of irritant contact dermatitis (ICD), TPA-induced; format: in vivo; details: for % Inhibition inflammatory swelling [Mean ± SEM values]: 10 μl topically 30 minutes prior to TPA challenge, auricular weight 6 hours after challenge, n 24
Method: Method: Crl:NMRI mice are challenged with 10 μl 0.005% phorbol 12-myristat-13-acetate (TPA) on the inner surface of the right ear. The unchallenged left ears serve as normal controls and dermatitis is evaluated from the difference in auricular weight (taken as a measure of inflammatory swelling) 6 hours after the challenge. The animals are treated topically with 10 μl of the test compound 1 or the solvent 30 minutes prior to the challenge. The efficacy of the treatment is calculated as the percentage inhibition of inflammatory auricular swelling relative to animals treated with the vehicle alone.

swine = experiment: Anti-inflammatory activity in swine model of allergic contact dermatitis (ACD), DNFB; format: in vivo
Method: Eight days before the elicitation of the ACD, […] of 10% 2,4-dinitrofluorobenzene (DNFB, dissolved in DMSO/acetone/olive oil [1/5/3, v/v/v]) are applied epicutaneously in divided volumes onto the basis of both ears and onto both groins (100 μl/site) for sensitization. The challenge reactions are elicited with 15 μl of DNFB (1.0%) on contralateral test sites (each 7 cm^2 in size) of the shaved dorsolateral back. For treatment, the compound of example 11 (=Test compound 2) and the placebo (solvent only) are applied contralaterally to 2 test sites in each animal 0.5 and 6 hours after the challenge. The test sites are clinically examined 24 hours after the challenge when inflammation peaks. The changes are scored on a scale from 0 to 4 (Table XY), allowing a combined maximal score of 12 per designated site. Skin reddening is measured reflectometrically using a* values (see Table 3)

Chain of Kallikrein-7 (P49862 30-253): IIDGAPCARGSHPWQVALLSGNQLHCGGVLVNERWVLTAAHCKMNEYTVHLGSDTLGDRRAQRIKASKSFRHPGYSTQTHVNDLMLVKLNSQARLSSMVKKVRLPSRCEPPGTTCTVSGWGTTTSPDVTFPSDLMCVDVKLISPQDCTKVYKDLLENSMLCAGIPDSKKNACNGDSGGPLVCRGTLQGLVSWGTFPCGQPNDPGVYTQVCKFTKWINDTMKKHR

IC50 (Kallikrein-7): 3 nM
SMILES: O=C(NCc1cccnc1)[C@@H]1[C@H]2C[C@H]2CN1C(=O)NCc1cccc2ccc(Cl)cc12 [Example 36, (1S,2S,5R)-3-aza-bicyclo[3.1.0]hexane-2,3-dicarboxylic acid 3-[(7-chloro-naphthalen-1-ylmethyl)-amide] 2-[(pyridin-3-ylmethyl)-amide]]

SMILES: COc1ccc(CCNC(=O)[C@@H]2[C@H]3C[C@H]3CN2C(=O)NCc2cccc3ccc(Cl)cc23)cc1 [Example 37, (1S,2S,5R)-3-aza-bicycic[3.1.0]hexane-2,3-dicarboxylic acid 3-[(7-chloro-naphthalen-1-ylmethyl)-amide] 2-{[2-(4-methoxy-phenyl)-ethyl]-amide}]
% Recovery in barrier disruption Mean (SD values) (hairless SKH1 mice; 30 μl applied immediately after barrier disruption, TEWL at 3 hrs, n: 8 or 12 animals per group): 76 (3.3)*** %
acceleration of barrier repair compared to repair in mice treated with the solvent alone (hairless SKH1 mice; single application, p<0.001): 65-76%
% Inhibition inflammatory swelling [Mean ± SEM values] (Crl:NMRI mice; 10 mM): 41 ± 5.3***^24%
inhibition of inflammatory swelling (Crl:NMRI mice; 20 mM concentrations as printed in text): 54-73%
% Inhibition inflammatory swelling [Mean ± SEM values] (Crl:NMRI mice; 30 mM): 73 ± 7.0***^24%

SMILES: C#Cc1ccc2cccc(CNC(=O)N3CCC[C@H]3C(=O)NCc3cccnc3)c2c1 [Example 11, (S)-Pyrrolidine-1,2-dicarboxylic acid 1-[(7-ethynyl-naphthalen-1-ylmethyl)-amide] 2-[(pyridin-3-ylmethyl)-amide]]
A* value (Mean, SD, n: 8), skin reddening measured reflectometrically (swine; 1% solution applied 0.5 and 6 hours after challenge, 24 hours after challenge): 7.7 (1.6)
Clinical score (Mean, SD, n: 8) (swine; 1% solution applied 0.5 and 6 hours after challenge, examined 24 hours after challenge, maximal score 12): 4.1 (1.3)
Inhibition vs placebo-treated sites, Clinical score (swine; 1% solution, Mean, SD): 42.4 (11.1)
inhibition of clinical inflammatory changes (swine; 1% solution, p<0.01): 42%
